Measurements: US20230093099A1, “COMPOUNDS AND METHODS OF TREATING CANCERS” (CULLGEN (SHANGHAI), INC., priority 2019, published 2023)

Tested on: RS4;11 cells
Assay: Cell viability assay (CellTiter-Glo) in RS4;11 cells
Assay type: cell-based
Details: Homo sapiens, 72 h; RS4;11 ALL cells treated for three days; read-out: cell viability inhibition IC50
Outline: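 RS4;11 cells seeded at 5000 per well, exposed for 3 days to 8- or 12-point 3-fold serial dilutions. Viability read by CellTiter-Glo luminescence; IC50 fitted by nonlinear least-squares regression.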

Row | IC50 [µM] | Compound
1 | < 0.1 | CS(=O)(=O)c1ccc(-c2cccc3nc(Nc4ccc(N5CCN(CC(=O)NCCCCCCCNc6ccc7c(c6)C(=O)N(C6CCC(=O)NC6=O)C7=O)CC5)cc4)nn23)cc1 (stereo not shown) [JA-214]
2 | < 0.1 | O=C(CN1CCC(n2cc(-c3cnc4cccc(-c5cc(F)c(CN6CCOCC6)c(F)c5)c4n3)cn2)CC1)NCCCCCCCNc1ccc2c(c1)C(=O)N(C1CCC(=O)NC1=O)C2=O (stereo not shown) [JA-179, 2-(4-(4-(8-(3,5-difluoro-4-(morpholinomethyl)phenyl)quinoxalin-2-yl)-1H-pyrazol-1-yl)piperidin-1-yl)-N-(7-((2-(2,6-dioxopiperidin-3-yl)-1,3-dioxoisoindolin-5-yl)amino)heptyl)acetamide]

Same assay, conditions: Homo sapiens, 72 h; RS4;11 cells; cell viability, 3 days, CellTiter-Glo; read-out: IC50

Row | IC50 [µM] | Compound
3 | > 10 | Cc1ncsc1-c1ccc(CNC(=O)[C@@H]2C[C@@H](O)CN2C(=O)[C@@H](NC(=O)CCCCCCCCNC(=O)CN2CCN(c3ccc(Nc4nc5cccc(-c6ccc(S(C)(=O)=O)cc6)n5n4)cc3)CC2)C(C)(C)C)cc1 [JA-121, (2S,4R)-1-((S)-3,3-Dimethyl-2-(9-(2-(4-(4-((5-(4-(methylsulfonyl)phenyl)-[1,2,4]triazolo[1,5-a]pyridin-2-yl)amino)phenyl)piperazin-1-yl)acetamido)nonanamido)butanoyl)-4-hydroxy-N-(4-(4-methylthiazol-5-yl)benzyl)pyrrolidine-2-carboxamide]
4 | > 10 | Cc1ncsc1-c1ccc(CNC(=O)[C@@H]2C[C@@H](O)CN2C(=O)[C@@H](NC(=O)CCCCCCNC(=O)CN2CCN(c3ccc(Nc4nc5cccc(-c6ccc(S(C)(=O)=O)cc6)n5n4)cc3)CC2)C(C)(C)C)cc1 [JA-123, (2S,4R)-1-((S)-3,3-Dimethyl-2-(7-(2-(4-(4-((5-(4-(methylsulfonyl)phenyl)-[1,2,4]triazolo[1,5-a]pyridin-2-yl)amino)phenyl)piperazin-1-yl)acetamido)heptanamido)butanoyl)-4-hydroxy-N-(4-(4-methylthiazol-5-yl)benzyl)pyrrolidine-2-carboxamide]
5 | 0.426 | O=C1CCC(N2C(=O)c3ccc(OCCCCCCN4CCC(n5cc(-c6cnc7cccc(-c8cc(F)c(CN9CCOCC9)c(F)c8)c7n6)cn5)CC4)cc3C2=O)C(=O)N1 (stereo not shown) [JA-267, 5-((6-(4-(4-(8-(3,5-Difluoro-4-(morpholinomethyl)phenyl)quinoxalin-2-yl)-1H-pyrazol-1-yl)piperidin-1-yl)hexyl)oxy)-2-(2,6-dioxopiperidin-3-yl)isoindoline-1,3-dione]
6 | 3.48 | Cc1cnc(Nc2ccc(N3CCN(CC(=O)NCCNc4cccc5c4C(=O)N(C4CCC(=O)NC4=O)C5=O)CC3)cc2)nc1Nc1cccc(S(=O)(=O)NC(C)(C)C)c1 (stereo not shown) [JA-090, 2-(4-(4-((4-((3-(N-(tert-Butyl)sulfamoyl)phenyl)amino)-5-methylpyrimidin-2-yl)amino)phenyl)piperazin-1-yl)-N-(2-((2-(2,6-dioxopiperidin-3-yl)-1,3-dioxoisoindolin-4-yl)amino)ethyl)acetamide]
7 | 2.37 | Cc1ncsc1-c1ccc(CNC(=O)[C@@H]2C[C@@H](O)CN2C(=O)[C@@H](NC(=O)CCCCCCCCNC(=O)CN2CCC(n3cc(-c4cnc5cccc(-c6cc(F)c(CN7CCOCC7)c(F)c6)c5n4)cn3)CC2)C(C)(C)C)cc1 [JA-161, (2S,4R)-1-((S)-2-(9-(2-(4-(4-(8-(3,5-Difluoro-4-(morpholinomethyl)phenyl)quinoxalin-2-yl)-1H-pyrazol-1-yl)piperidin-1-yl)acetamido)nonanamido)-3,3-dimethylbutanoyl)-4-hydroxy-N-(4-(4-methylthiazol-5-yl)benzyl)pyrrolidine-2-carboxamide]
8 | > 10 | Cc1cnc(Nc2ccc(N3CCN(C(=O)CCCCCCC(=O)N[C@H](C(=O)N4C[C@H](O)C[C@H]4C(=O)NCc4ccc(-c5scnc5C)cc4)C(C)(C)C)CC3)cc2)nc1Nc1cccc(S(=O)(=O)NC(C)(C)C)c1 [JA-026, (2S,4R)-1-((S)-2-(8-(4-(4-((4-((3-(N-(tert-Butyl)sulfamoyl)phenyl)amino)-5-methylpyrimidin-2-yl)amino)phenyl)piperazin-1-yl)-8-oxooctanamido)-3,3-dimethylbutanoyl)-4-hydroxy-N-(4-(4-methylthiazol-5-yl)benzyl)pyrrolidine-2-carboxamide]
9 | 0.0635 | CS(=O)(=O)c1ccc(-c2cccc3nc(Nc4ccc(N5CCN(CC(=O)NCCCCCCCNc6ccc7c(c6)C(=O)N(C6CCC(=O)NC6=O)C7=O)CC5)cc4)nn23)cc1 (stereo not shown) [JA-214]
10 | 3.95 | CS(=O)(=O)c1ccc(-c2cccc3nc(Nc4ccc(N5CCN(C(=O)CCOCCOCCOCCNc6cccc7c6C(=O)N(C6CCC(=O)NC6=O)C7=O)CC5)cc4)nn23)cc1 (stereo not shown) [JA-085, 2-(2,6-Dioxo-piperidin-3-yl)-4-[2-(2-{2-[3-(4-{4-[5-(4-methanesulfonyl-phenyl)-[1,2,4]triazolo[1,5-a]pyridin-2-ylamino]-phenyl}-piperazin-1-yl)-3-oxo-propoxy]-ethoxy}-ethoxy)-ethylamino]-isoindole-1,3-dione]
11 | 0.0783 | O=C(CN1CCC(n2cc(-c3cnc4cccc(-c5cc(F)c(CN6CCOCC6)c(F)c5)c4n3)cn2)CC1)NCCCCCCCNc1ccc2c(c1)C(=O)N(C1CCC(=O)NC1=O)C2=O (stereo not shown) [JA-179, 2-(4-(4-(8-(3,5-difluoro-4-(morpholinomethyl)phenyl)quinoxalin-2-yl)-1H-pyrazol-1-yl)piperidin-1-yl)-N-(7-((2-(2,6-dioxopiperidin-3-yl)-1,3-dioxoisoindolin-5-yl)amino)heptyl)acetamide]
12 | > 10 | Cc1ncsc1-c1ccc(CNC(=O)[C@@H]2C[C@@H](O)CN2C(=O)[C@@H](NC(=O)COCCOCC(=O)N2CCC(n3cc(-c4cnc5cccc(-c6cc(F)c(CN7CCOCC7)c(F)c6)c5n4)cn3)CC2)C(C)(C)C)cc1 [JA-054, (2S,4R)-1-[(2S)-2-[[2-[2-[2-[4-[4-[8-[3,5-Difluoro-4-(morpholinomethyl)phenyl]quinoxalin-2-yl]pyrazol-1-yl]-1-piperidyl]-2-oxo-ethoxy]ethoxy]acetyl]amino]-3,3-dimethyl-butanoyl]-4-hydroxy-N-[[4-(4-methylthiazol-5-yl)phenyl]methyl]pyrrolidine-2-carboxamide]
13 | > 0.5 | Cn1c(=O)n(C2CCC(=O)NC2=O)c2cccc(NCCCCCC(=O)N3CCN(c4ccc(Nc5nc6cccc(-c7ccc(S(C)(=O)=O)cc7)n6n5)cc4)CC3)c21 (stereo not shown) [JA-284, 3-(3-Methyl-4-((6-(4-(4-((5-(4-(methylsulfonyl)phenyl)-[1,2,4]triazolo[1,5-a]pyridin-2-yl)amino)phenyl)piperazin-1-yl)-6-oxohexyl)amino)-2-oxo-2,3-dihydro-1H-benzo[d]imidazol-1-yl)piperidine-2,6-dione]
14 | > 10 | Cc1ncsc1-c1ccc(CNC(=O)[C@@H]2C[C@@H](O)CN2C(=O)[C@@H](NC(=O)CCCCC(=O)N2CCN(c3ccc(Nc4nc5cccc(-c6ccc(S(C)(=O)=O)cc6)n5n4)cc3)CC2)C(C)(C)C)cc1 [JA-074, (2S,4R)-1-((S)-3,3-Dimethyl-2-(6-(4-(4-((5-(4-(methylsulfonyl)phenyl)-[1,2,4]triazolo[1,5-a]pyridin-2-yl)amino)phenyl)piperazin-1-yl)-6-oxohexanamido)butanoyl)-4-hydroxy-N-(4-(4-methylthiazol-5-yl)benzyl)pyrrolidine-2-carboxamide]
15 | > 10 | Cc1ncsc1-c1ccc(CNC(=O)[C@@H]2C[C@@H](O)CN2C(=O)[C@@H](NC(=O)CCNC(=O)CN2CCC(n3cc(-c4cnc5cccc(-c6cc(F)c(CN7CCOCC7)c(F)c6)c5n4)cn3)CC2)C(C)(C)C)cc1 [JA-155, (2S,4R)-1-((S)-2-(3-(2-(4-(4-(8-(3,5-Difluoro-4-(morpholinomethyl)phenyl)quinoxalin-2-yl)-1H-pyrazol-1-yl)piperidin-1-yl)acetamido)propanamido)-3,3-dimethylbutanoyl)-4-hydroxy-N-(4-(4-methylthiazol-5-yl)benzyl)pyrrolidine-2-carboxamide]
16 | 0.301 | O=C1CCC(N2C(=O)c3ccc(NCCCCCCN4CCC(n5cc(-c6cnc7cccc(-c8cc(F)c(CN9CCOCC9)c(F)c8)c7n6)cn5)CC4)cc3C2=O)C(=O)N1 (stereo not shown) [JA-266, 5-((6-(4-(4-(8-(3,5-Difluoro-4-(morpholinomethyl)phenyl)quinoxalin-2-yl)-1H-pyrazol-1-yl)piperidin-1-yl)hexyl)amino)-2-(2,6-dioxopiperidin-3-yl)isoindoline-1,3-dione]
